Here are results for one molecule from patent US20090263451A1, “Anti-Inflammatory and/or Analgesic Agents for Treatment of Myofascial Pain” (Warsaw Orthopedic, Inc., priority 2008, published 2009).

For test [1], the system named is Rat Chronic Constriction Injury Model. To be noted: 0.02 mg/kg/day subcutaneously; vs. 45% for unloaded polymer depots; FIG. 3.
From the text: (§1) A 2-month chronic constriction injury (CCI) model of neuropathic pain was used to evaluate different formulations of a clonidine, encapsulated in bioerodable polymers compared to clonidine given subcutaneously (SC).
(§2) The inventors evaluated the efficacy of a five Month Clonidine/Polymer Drug Depot in the Rat Chronic Constriction Injury Model. The animal model was the Bennett Model (Wistar rat). The purpose: To determine whether a five month polymer clonidine-eluting depot can improve pain associated behavioral responses in a rat model of neuropathic pain.
(§3) Experimental Design: Four loose chromic gut ligatures, 1 mm apart, were tied around the common sciatic nerve at mid-thigh. Each animal received treatment of test or control article-according to the dosing described in Table 5.
(§4) The inventors have conducted the present study for a period of 64 days and have employed the following two tests: (1) the Hargreaves test; and (2) the von Frey test. The Hargreaves Tests of Thermal Hyperalgesia were conducted on days 7, 14, 21, 28, 35, 42, 49, 56 and 63. The von Frey monofilament test of mechanical allodynia (performed the day following Thermal testing) were conducted on days-8, 15, 22, 29, 36, 43, 50, 57 and 64.
Test [2] has the same test system. The settings on record: 0.02 mg/kg/day subcutaneously; compared to unloaded polymer depots; FIG. 4.
From the text: as §1, §2, §3, §4

The structures appear in SMILES notation.

Consider `Clc1cccc(Cl)c1N=C1NCCN1` [clonidine, 2,6-dichloro-N-2-imidazolidinyldenebenzenamine], for which the “pain behavioral response (percentage of baseline), thermal hyperalgesia” value in test [1] was 58%. Further, in test [2], the “pain behavioral response (percentage of baseline), mechanical allodynia” value is “reduced the behavioral response”.
